Holding throughout (experiment): relative viability (nuclei count vs DMSO), 5 days (fraction); higher = more cells survive
Compound in assay [1]: CC1=CC(=NN1)NC2=CC(=NC(=N2)/C=C/C3=CC=CC=C3)N4CCN(CC4)C + CC(=O)c1c(C)c2cnc(Nc3ccc(N4CCNCC4)cn3)nc2n(C2CCCC2)c1=O [Palbociclib] (partner 0.5 µM)
In outline:
(§1)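 One day after seeding in 1536-well plates, lung cancer cell lines were dosed by pin tool. Dosing was either single-drug or a fixed anchor-drug dose plus five library-drug doses (not always all listed) in √10 steps. After 5 days, nuclei were stained in one fix-and-stain step and counted on 4× images, and relative viability is the nuclei count of treated wells over that of vehicle wells, given as the median of duplicate plates.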

Compound in assay [2]: CC1=CC(=NN1)NC2=CC(=NC(=N2)/C=C/C3=CC=CC=C3)N4CCN(CC4)C + COc1cccc2cc(-c3nc([C@H]4CC[C@H](C(=O)O)CC4)n4ncnc(N)c34)[nH]c12 [OSI-027] (partner 0.5 µM)
In outline:
as §1

Compound in assay [3]: CC1=CC(=NN1)NC2=CC(=NC(=N2)/C=C/C3=CC=CC=C3)N4CCN(CC4)C + Nc1ncn([C@H]2C[C@H](O)[C@@H](CO)O2)c(=O)n1 [Decitabine] (partner 2 µM)
Put shortly:
as §1

Compound in the assay “Obatoclax + Vorinostat”: COC1=CC(c2cc3ccccc3[nH]2)=N/C1=C\c1[nH]c(C)cc1C [Obatoclax] + O=C(CCCCCCC(=O)Nc1ccccc1)NO [Vorinostat] (partner 1 µM)
Put shortly:
as §1

The values that follow come from the supplement of paper PMC10307832.

For NCI-H650, the relative viability in assay [1] (first compound 0.08 µM) was determined as 0.288; in assay [1] (first compound 0.253 µM), 0.321; in assay [1] (first compound 0.8 µM) it was 0.339; in assay [1] (first compound 2.53 µM) it was 0.294; in assay [1] (first compound 8 µM), 0.177; in assay [2] (first compound 0.253 µM), 0.597. The relative viability is 0.575 in assay [2] (first compound 0.8 µM); 0.47 in assay [2] (first compound 2.53 µM); 0.172 in assay [2] (first compound 8 µM); 0.314 in assay [3] (first compound 0.08 µM); 0.318 in assay [3] (first compound 0.253 µM); 0.287 in assay [3] (first compound 0.8 µM). For the same cell line, the relative viability was 0.246 in assay [3] (first compound 2.53 µM); 0.157 in assay [3] (first compound 8 µM); 0.439 with Obatoclax + Vorinostat (first compound 0.01 µM); 0.444 with Obatoclax + Vorinostat (first compound 0.03162 µM); 0.418 with Obatoclax + Vorinostat (first compound 0.3162 µM); 0.384 in the assay with Obatoclax + Vorinostat (first compound 1 µM).
